Measurements published in patent US20160129033A1, “COMBINATION OF RO5503781 AND CAPECITABINE FOR CANCER THERAPY” (HOFFMANN-LA ROCHE INC., priority 2013, published 2016).

System: LoVo cell line
Assay: Tumor growth inhibition and survival (ILS) in mice implanted with LoVo cell line
Assay type: in vivo
Description: The LoVo cell line was selected for implantation in mice as it is a p53 wildtype cell line that lacks MDM2 amplification or overexpression and therefore is felt to be more reflective of clinical reality of the colorectal cancer patient population of interest.
The following treatment groups were used in the study
Efficacy data was graphically represented as the mean tumor volume±standard error of the mean (SEM). In addition, tumor volumes of treated groups were presented as percentages of tumor volumes of the control groups (% T/C), using the formula: 100×((T-T0)/(C-C0)), where T represented mean tumor volume of a treated group on a specific day during the experiment, T0 represented mean tumor volume of the same treated group on the first day of treatment; C represented mean tumor volume of a control group on the specific day during the experiment, and C0 represented mean tumor volume of the same treated group on the first day of treatment.
Tumor volume (in cubic millimeters) was calculated using the ellipsoid formula: (D×(d^2))/2, where “D” represents the large diameter of the tumor and “d” represents the small diameter. In some cases, tumor regression and/or percent change in tumor volume was calculated using the formula: ((T-T0)/T0)×100, where ‘T’ represents mean tumor volume of the treated group at a particular day, and ‘T0’ represents mean tumor volume of the same treated group at initiation of treatment.
Statistical analysis was determined by the rank sum test and One Way Anova and a post-hoc Bonferroni t-test (SigmaStat, version 2.0, Jandel Scientific, San Francisco, Calif., USA). Differences between groups were considered to be significant when the probability value (p) was ≦0.05.
For survival assessment, the percent of increased life space (ILS) was calculated as: 100×[(median survival day of treated group−median survival day of control group)/median survival day of control group]. Median survival was determined utilizing Kaplan Meier survival analysis. Survival in treated groups was statistically compared with the vehicle group and survival comparisons were done between groups using the log-rank test (Graph Pad Prism, La Jolla, Calif., USA). Differences between groups were considered significant when the probability value (p) was ≦0.05.

[1] = Capecitabine 200 mg/kg qd × 14 po
[2] = Capecitabine 400 mg/kg qd × 14 po

| SMILES | % Increased Life Span (ILS) [1] [%] | Mean Tumor Volume [1] [cubic millimeters] | % Inhibition (EOS) (TGI) [1] [%] | % T/C (EOS) [1] [%] | % Increased Life Span (ILS) [2] [%] | Mean Tumor Volume [2] [cubic millimeters] | % Inhibition (EOS) (TGI) [2] [%] | % T/C (EOS) [2] [%] | % Increased Life Span (ILS) (Cpd. A 80 mg/kg qd × 5 po) [%] | Mean Tumor Volume (Cpd. A 80 mg/kg qd × 5 po) [cubic millimeters] | % Inhibition (EOS) (TGI) (Cpd. A 80 mg/kg qd × 5 po) [%] | % T/C (EOS) (Cpd. A 80 mg/kg qd × 5 po) [%] | % Increased Life Span (ILS) (Cpd. A 100 mg/kg qweekly×3 po) [%] | Mean Tumor Volume (Cpd. A 100 mg/kg qweekly×3 po) [cubic millimeters] | % Inhibition (EOS) (TGI) (Cpd. A 100 mg/kg qweekly×3 po) [%] | % T/C (EOS) (Cpd. A 100 mg/kg qweekly×3 po) [%] |
| --- | --- | --- | --- | --- | --- | --- | --- | --- | --- | --- | --- | --- | --- | --- | --- | --- |
| CCCCCOC(=O)Nc1nc(=O)n([C@@H]2O[C@H](C)[C@@H](O)[C@H]2O)cc1F [Capecitabine, 5′-deoxy-5-fluoro-N-[(pentyloxy)-carbonyl]-cytidine] | 40 | 130.14 | 72 | 28 | 49 | 130.66 | 88 | 12 | – | – | – | – | – | – | – | – |
| COc1cc(C(=O)O)ccc1NC(=O)[C@@H]1N[C@@H](CC(C)(C)C)[C@](C#N)(c2ccc(Cl)cc2F)[C@H]1c1cccc(Cl)c1F [Compound A, 4-{[(2R,3S,4R,5S)-4-(4-Chloro-2-fluoro-phenyl)-3-(3-chloro-2-fluoro-phenyl)-4-cyano-5-(2,2-dimethyl-propyl)-pyrrolidine-2-carbonyl]-amino}-3-methoxy-benzoic acid] | – | – | – | – | – | – | – | – | 23 | 130.39 | 62 | 38 | 17 | 130.11 | 55 | 45 |
